Experimental data: patent US20260295053A1, “COMPOUNDS FOR DEGRADATION AND INHIBITION OF KRAS (G12D) PROTEIN” (Shenzhen Ionova Life Science Co., Ltd., priority 2023, published 2026)

How the values were obtained:
AsPC-1 cells = assay: AsPC-1 cell proliferation assay (CellTiter Glo); assay type: cell-based; settings: 6 days
Method in brief: (§1)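 AsPC-1 cells: for degradation, grown to ~90% confluency, treated 24 h with 1:3 compound series ([…] to 1.5 nM), then fixed and immunostained for KRAS G12D and β-actin, read by infrared fluorescence, DC50 fitted. Proliferation: 3,500 cells/well, 6-day treatment, CellTiter Glo luminescence, IC50 fitted.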

KRAS (G12D) = target: T1, KRAS (G12D) (Homo sapiens, UniProt P01116, G12D); assay: KRAS (G12D) cellular degradation assay in AsPC-1 cells; assay type: cell-based; settings: 24 hours, antibody fluorescence (Odyssey CLX), DC50 half-maximal degradation concentration
T1 construct: in-cell western with KRAS G12D antibody after 24 h
T1 sequence (P01116 1-188 isoform P01116-2 G12D): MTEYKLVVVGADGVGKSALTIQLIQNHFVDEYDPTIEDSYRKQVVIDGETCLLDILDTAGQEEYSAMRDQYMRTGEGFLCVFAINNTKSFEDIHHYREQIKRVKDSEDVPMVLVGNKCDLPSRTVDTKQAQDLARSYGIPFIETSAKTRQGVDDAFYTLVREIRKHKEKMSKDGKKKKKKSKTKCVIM
Method in brief: as §1

SMILES	IC50 (AsPC-1 cells; Homo sapiens, ASPC1, 144 h) [nM]	DC50 (KRAS (G12D)) [nM]	IC50 (AsPC-1 cells) [nM]
CCn1nccc1-c1ccc([C@H](CO)NC(=O)[C@@H]2C[C@@H](O)CN2C(=O)[C@H](C(C)C)n2cc(-c3ccc(COc4c(-c5c(C)c(F)cc6[nH]ncc56)c(C5CC5)cc5c(N6C[C@@H]7C[C@H]6CN7)nc(O[C@H]6C[C@H](OC)C6)nc45)cc3)nn2)c2c1CC2 [Example 160, (2S,4R)-1-((2S)-2-(4-(4-(((4-((1S,4S)-2,5-diazabicyclo[2.2.1]heptan-2-yl)-6-cyclopropyl-7-(6-fluoro-5-methyl-1H-indazol-4-yl)-2-((1r,3S)-3-methoxycyclobutoxy)quinazolin-8-yl)oxy)methyl)phenyl)-1H-1,2,3-triazol-1-yl)-3-methylbutanoyl)-N—((R)-1-(5-(1-ethyl-1H-pyrazol-5-yl)bicyclo[4.2.0]octa-1(6),2,4-trien-2-yl)-2-hydroxyethyl)-4-hydroxypyrrolidine-2-carboxamide]	< 10	< 10	–
CCn1nccc1-c1ccc([C@H](CO)NC(=O)[C@@H]2C[C@@H](O)CN2C(=O)[C@H](C(C)C)n2cc(-c3ccc(COc4c(-c5c(C)c(F)cc6[nH]ncc56)c(C5CC5)cc5c(N6CCOCC(C)(O)C6)nc(OC[C@H](C)OC)nc45)cc3)nn2)cc1 (stereo partly drawn) [Example 161, (2S,4R)-1-((2S)-2-(4-(4-(((6-cyclopropyl-7-(6-fluoro-5-methyl-1H-indazol-4-yl)-4-(6-hydroxy-6-methyl-1,4-oxazepan-4-yl)-2-((S)-2-methoxypropoxy)quinazolin-8-yl)oxy)methyl)phenyl)-1H-1,2,3-triazol-1-yl)-3-methylbutanoyl)-N—((R)-1-(4-(1-ethyl-1H-pyrazol-5-yl)phenyl)-2-hydroxyethyl)-4-hydroxypyrrolidine-2-carboxamide]	< 10	10 to 100	–
CCn1cc2c(C#C[C@H](CO)NC(=O)[C@@H]3C[C@@H](O)CN3C(=O)[C@H](C(C)C)n3cc(-c4ccc(COc5c(-c6c(C)c(F)cc7[nH]ncc67)c(C6CC6)cc6c(N7C[C@@H]8C[C@H]7CN8)nc(OC[C@H](C)OC)nc56)cc4)nn3)cccc2n1 [Example 162, (2S,4R)-1-((2S)-2-(4-(4-(((4-((1S,4S)-2,5-diazabicyclo[2.2.1]heptan-2-yl)-6-cyclopropyl-7-(6-fluoro-5-methyl-1H-indazol-4-yl)-2-((S)-2-methoxypropoxy)quinazolin-8-yl)oxy)methyl)phenyl)-1H-1,2,3-triazol-1-yl)-3-methylbutanoyl)-N—((R)-4-(2-ethyl-2H-indazol-4-yl)-1-hydroxybut-3-yn-2-yl)-4-hydroxypyrrolidine-2-carboxamide]	< 10	< 10	–
CCn1nccc1-c1ccc([C@@H](NC(=O)[C@@H]2C[C@@H](O)CN2C(=O)[C@H](C(C)C)n2cc(-c3ccc(COc4c(-c5c(C)c(F)cc6[nH]ncc56)c(C5CC5)cc5c(N(C)[C@H]6CCNC6)nc(OC[C@H](C)OC)nc45)cc3)nn2)[C@H](C)O)c2c1CC2 [Example 164, (2S,4R)-1-((2S)-2-(4-(4-(((6-cyclopropyl-7-(6-fluoro-5-methyl-1H-indazol-4-yl)-2-((S)-2-methoxypropoxy)-4-(methyl((S)-pyrrolidin-3-yl)amino)quinazolin-8-yl)oxy)methyl)phenyl)-1H-1,2,3-triazol-1-yl)-3-methylbutanoyl)-N-((1R,2S)-1-(5-(1-ethyl-1H-pyrazol-5-yl)bicyclo[4.2.0]octa-1(6),2,4-trien-2-yl)-2-hydroxypropyl)-4-hydroxypyrrolidine-2-carboxamide]	–	< 10	< 10
CCn1nccc1-c1ccc([C@H](CO)NC(=O)[C@@H]2C[C@@H](O)CN2C(=O)[C@H](C(C)C)n2cc(-c3ccc(COc4c(-c5c(C)c(F)cc6[nH]ncc56)c(C5CC5)cc5c(N(C)[C@H]6CCNC6)nc(O[C@H]6C[C@H](OC)C6)nc45)cc3)nn2)cc1 [Example 165, (2S,4R)-1-((2S)-2-(4-(4-(((6-cyclopropyl-7-(6-fluoro-5-methyl-1H-indazol-4-yl)-2-((1r,3S)-3-methoxycyclobutoxy)-4-(methyl((S)-pyrrolidin-3-yl)amino)quinazolin-8-yl)oxy)methyl)phenyl)-1H-1,2,3-triazol-1-yl)-3-methylbutanoyl)-N—((R)-1-(4-(1-ethyl-1H-pyrazol-5-yl)phenyl)-2-hydroxyethyl)-4-hydroxypyrrolidine-2-carboxamide]	< 10	< 10	–
CO[C@H]1C[C@H](Oc2nc(N(C)[C@H]3CCNC3)c3cc(C4CC4)c(-c4c(C)c(F)cc5[nH]ncc45)c(OCc4ccc(-c5cn([C@H](C(=O)N6C[C@H](O)C[C@H]6C(=O)N[C@@H](CO)c6ccc(-c7scnc7C)cc6)C(C)C)nn5)cc4)c3n2)C1 [Example 166, (2S,4R)-1-((2S)-2-(4-(4-(((6-cyclopropyl-7-(6-fluoro-5-methyl-1H-indazol-4-yl)-2-((1r,3S)-3-methoxycyclobutoxy)-4-(methyl((S)-pyrrolidin-3-yl)amino)quinazolin-8-yl)oxy)methyl)phenyl)-1H-1,2,3-triazol-1-yl)-3-methylbutanoyl)-4-hydroxy-N—((R)-2-hydroxy-1-(4-(4-methylthiazol-5-yl)phenyl)ethyl)pyrrolidine-2-carboxamide]	< 10	< 10	–
CO[C@@H](C)COc1nc(N(C)[C@H]2CCNC2)c2cc(C3CC3)c(-c3c(C)c(F)cc4[nH]ncc34)c(OCc3ccc(-c4cn([C@H](C(=O)N5C[C@H](O)C[C@H]5C(=O)N[C@H](c5ccc(-c6scnc6C)cc5)[C@H](C)O)C(C)C)nn4)cc3)c2n1 [Example 167, (2S,4R)-1-((2S)-2-(4-(4-(((6-cyclopropyl-7-(6-fluoro-5-methyl-1H-indazol-4-yl)-2-((S)-2-methoxypropoxy)-4-(methyl((S)-pyrrolidin-3-yl)amino)quinazolin-8-yl)oxy)methyl)phenyl)-1H-1,2,3-triazol-1-yl)-3-methylbutanoyl)-4-hydroxy-N-((1R,2S)-2-hydroxy-1-(4-(4-methylthiazol-5-yl)phenyl)propyl)pyrrolidine-2-carboxamide]	–	< 10	< 10
CCn1nccc1-c1ccc([C@H](CO)NC(=O)[C@@H]2C[C@@H](O)CN2C(=O)[C@H](C(C)C)n2cc(-c3ccc(COc4c(-c5c(C)c(F)cc6[nH]ncc56)c(C5CC5)cc5c(N(C)[C@H]6CCNC6)nc(OC[C@H](C)OC)nc45)cc3)nn2)c2c1CC2 [Example 169, (2S,4R)-1-((2S)-2-(4-(4-(((6-cyclopropyl-7-(6-fluoro-5-methyl-1H-indazol-4-yl)-2-((S)-2-methoxypropoxy)-4-(methyl((S)-pyrrolidin-3-yl)amino)quinazolin-8-yl)oxy)methyl)phenyl)-1H-1,2,3-triazol-1-yl)-3-methylbutanoyl)-N—((R)-1-(5-(1-ethyl-1H-pyrazol-5-yl)bicyclo[4.2.0]octa-1(6),2,4-trien-2-yl)-2-hydroxyethyl)-4-hydroxypyrrolidine-2-carboxamide]	< 10	< 10	–
CCn1nccc1-c1ccc([C@@H](NC(=O)[C@@H]2C[C@@H](O)CN2C(=O)[C@H](C(C)C)n2cc(-c3ccc(COc4c(-c5c(C)c(F)cc6[nH]ncc56)c(C5CC5)cc5c(N(C)[C@H]6CCNC6)nc(O[C@H]6C[C@H](OC)C6)nc45)cc3)nn2)[C@H](C)O)cc1 [Example 170, (2S,4R)-1-((2S)-2-(4-(4-(((6-cyclopropyl-7-(6-fluoro-5-methyl-1H-indazol-4-yl)-2-((1r,3S)-3-methoxycyclobutoxy)-4-(methyl((S)-pyrrolidin-3-yl)amino)quinazolin-8-yl)oxy)methyl)phenyl)-1H-1,2,3-triazol-1-yl)-3-methylbutanoyl)-N-((1R,2S)-1-(4-(1-ethyl-1H-pyrazol-5-yl)phenyl)-2-hydroxypropyl)-4-hydroxypyrrolidine-2-carboxamide]	< 10	< 10	–
CO[C@H]1C[C@H](Oc2nc(N(C)[C@H]3CCNC3)c3cc(C4CC4)c(-c4c(C)c(F)cc5[nH]ncc45)c(OCc4ccc(-c5cn([C@H](C(=O)N6C[C@H](O)C[C@H]6C(=O)N[C@H](c6ccc(-c7scnc7C)cc6)[C@H](C)O)C(C)C)nn5)cc4)c3n2)C1 [Example 171, (2S,4R)-1-((2S)-2-(4-(4-(((6-cyclopropyl-7-(6-fluoro-5-methyl-1H-indazol-4-yl)-2-((1r,3S)-3-methoxycyclobutoxy)-4-(methyl((S)-pyrrolidin-3-yl)amino)quinazolin-8-yl)oxy)methyl)phenyl)-1H-1,2,3-triazol-1-yl)-3-methylbutanoyl)-4-hydroxy-N-((1R,2S)-2-hydroxy-1-(4-(4-methylthiazol-5-yl)phenyl)propyl)pyrrolidine-2-carboxamide]	< 10	< 10	–
CCn1nccc1-c1ccc([C@@H](NC(=O)[C@@H]2C[C@@H](O)CN2C(=O)[C@H](C(C)C)n2cc(-c3ccc(COc4c(-c5c(C)c(F)cc6[nH]ncc56)c(C5CC5)cc5c(N(C)[C@H]6CCNC6)nc(O[C@H]6C[C@H](OC)C6)nc45)cc3)nn2)[C@H](C)O)c2c1CC2 [Example 173, (2S,4R)-1-((2S)-2-(4-(4-(((6-cyclopropyl-7-(6-fluoro-5-methyl-1H-indazol-4-yl)-2-((1r,3S)-3-methoxycyclobutoxy)-4-(methyl((S)-pyrrolidin-3-yl)amino)quinazolin-8-yl)oxy)methyl)phenyl)-1H-1,2,3-triazol-1-yl)-3-methylbutanoyl)-N-((1R,2S)-1-(5-(1-ethyl-1H-pyrazol-5-yl)bicyclo[4.2.0]octa-1(6),2,4-trien-2-yl)-2-hydroxypropyl)-4-hydroxypyrrolidine-2-carboxamide]	< 10	< 10	–
